Key:
Format in all cases: functional
Felis catus [1] = assay: Percent reduction in blood pressure after iv administration of 1 umol/kg of compound in anesthetized cat
Felis catus [2] = assay: Percent reduction in heart rate after iv administration of 1 umol/kg of compound in anesthetized cats.
Felis catus [3] = species on record: Felis catus; assay: Tested for inhibition of postganglionic cardioaccelerator nerve in the cat; conditions: for ED50: Felis catus, read-out: ID50 (the source's name)
Felis catus [4] = species on record: Felis catus; assay: Tested for inhibitory activity against postganglionic cardioaccelerator nerve relative to apomorphine

SMILES | Reduction (Felis catus [1]) [%] | Reduction (Felis catus [2]) [beats min-1] | ED50 (Felis catus [3]) [µmol/kg] | Relative activity (Felis catus [4]) | ID50 (Felis catus [3]) [µM/kg]
Br.CCN1CC[C@H]2CCc3cc(O)c(O)cc3[C@H]2C1 | 18.5 | 4.3 | 0.81 | 0.025 | –
Br.CCCN1CC[C@H]2CCc3cc(O)c(O)cc3[C@@H]2C1 (relative stereo) | 13.3 | 3 | 0.8 | 0.026 | –
Br.CCCN1CC[C@H]2CCc3cc(O)c(O)cc3[C@H]2C1 (relative stereo) | 31.7 | 22.6 | 0.9 | 0.02 | –
Br.Oc1cc2c(cc1O)C1CNCCC1CC2 (stereo in doubt; 21) | 27.9 | 13.6 | – | 0.073 | 0.31
Br.CN1CCC2CCc3cc(O)c(O)cc3C2C1 (trans isomer) | 14.6 | 3.2 | 0.52 | 0.038 | –
Br.Oc1cc2c(cc1O)C1CNCCC1CC2 (trans isomer) | 21.9 | 49 | – | 0.27 | 0.8
CN1CCc2cccc3c2[C@H]1Cc1ccc(O)c(O)c1-3 [APOMORPHINE] | – | – | 0.024 | 1 | –

Source: ChEMBL document CHEMBL1121576, “Congeners of the alpha conformer of dopamine derived from octahydrobenz[h]isoquinoline” (1980)
